Data published in patent US8889906B2, “Tetralin and indane derivatives and uses thereof” (Roche Palo Alto LLC, priority 2004, dated 2014).
Counter-ions that a name gives are not always drawn.

Tests used:
[1] = molecular target: T1, recombinant human 5-HT6 receptor (Homo sapiens, UniProt P50406); experiment: 5-HT6 radioligand binding ([3H]LSD competition); conditions: [3H]LSD displacement, membranes of HEK293 cells expressing recombinant human 5-HT6 receptor, 37° C.; read-out: pKi for 5-HT6 (converted)
T1 construct: expressed in transfected cells
T1 sequence (P50406 whole entry): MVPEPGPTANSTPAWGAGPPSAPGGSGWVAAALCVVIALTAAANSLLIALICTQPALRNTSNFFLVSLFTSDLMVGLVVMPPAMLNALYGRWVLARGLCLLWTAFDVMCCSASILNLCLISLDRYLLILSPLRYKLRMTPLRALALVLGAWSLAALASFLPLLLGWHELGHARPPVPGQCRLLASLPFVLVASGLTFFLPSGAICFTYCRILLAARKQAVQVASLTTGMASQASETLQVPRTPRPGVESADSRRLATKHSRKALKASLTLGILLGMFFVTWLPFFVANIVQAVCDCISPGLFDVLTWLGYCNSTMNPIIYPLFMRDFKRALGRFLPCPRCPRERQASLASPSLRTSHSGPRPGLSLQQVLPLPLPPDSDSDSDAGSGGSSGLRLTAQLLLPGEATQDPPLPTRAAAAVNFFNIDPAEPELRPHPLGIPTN
Experimental: (§1) The binding activity of compounds of this invention in vitro was determined as follows. Duplicate determinations of 5-HT6 ligand affinity were made by competing for binding of [^3H]LSD in cell membranes derived from HEK293 cells stably expressing recombinant human 5-HT6 receptor. Duplicate determinations of 5-HT2A ligand affinity were made by competing for binding of [^3H]Ketanserin (3-(2-(4-(4-fluorobenzoyl)piperidinol)ethyl)-2,4(1H,3H)-quinazolinedione) in cell membranes derived from CHO-K1 cells stably expressing recombinant human 5-HT2A receptor. Membranes were prepared from HEK 293 cell lines by the method described by Monsma et al., Molecular Pharmacology, Vol. 43 pp. 320-327 (1993), and from CHO-K1 cell lines as described by Bonhaus et al., Br J Pharmacol. June; 115(4):622-8 (1995).
(§2) For estimation of affinity at the 5-HT6 receptor, all determinations were made in assay buffer containing 50 mM Tris-HCl, 10 mM MgSO4, 0.5 mM EDTA, 1 mM ascorbic acid, pH 7.4 at 37° C., in a 250 microliter reaction volume. […]
(§3) Assay tubes containing [^3H] […] Ketanserin were determined as radioactive counts per minute using Packard TopCount.
(§4) Displacement of [^3H]LSD or [^3H]Ketanserin from the binding sites was quantified by fitting concentration-binding data to a 4-parameter logistic equation: […]

[2] = molecular target: T2, recombinant human 5-HT2A receptor (Homo sapiens, UniProt P28223); experiment: 5-HT2A radioligand binding ([3H]Ketanserin competition); conditions: [3H]Ketanserin displacement, membranes of CHO-K1 cells expressing recombinant human 5-HT2A receptor, 32° C.; read-out: pKi for 5-HT2A (converted)
T2 construct: expressed in transfected cells
T2 sequence (P28223 whole entry): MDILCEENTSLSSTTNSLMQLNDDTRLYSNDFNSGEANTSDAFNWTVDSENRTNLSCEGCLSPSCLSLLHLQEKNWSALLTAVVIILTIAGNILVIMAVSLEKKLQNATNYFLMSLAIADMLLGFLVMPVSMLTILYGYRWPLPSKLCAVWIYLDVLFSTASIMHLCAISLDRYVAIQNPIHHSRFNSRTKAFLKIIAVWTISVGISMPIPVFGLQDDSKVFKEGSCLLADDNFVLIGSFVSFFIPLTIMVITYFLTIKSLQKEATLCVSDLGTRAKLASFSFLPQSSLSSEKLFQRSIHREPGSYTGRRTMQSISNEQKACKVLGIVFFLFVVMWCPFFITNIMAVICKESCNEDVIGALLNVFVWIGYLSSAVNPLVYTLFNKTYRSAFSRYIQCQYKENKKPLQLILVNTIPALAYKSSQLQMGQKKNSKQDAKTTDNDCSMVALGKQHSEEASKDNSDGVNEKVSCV
Experimental: as §1, §2, §3, §4

Compound	melting point [°C]	further results
CNC[C@@H]1CCCc2cc(S(=O)(=O)c3cccc(OC)c3)ccc21 (as salt: HCl) [Compound 50, (R)-[6-(3-Methoxy-benzenesulfonyl)-1,2,3,4-tetrahydro-naphthalen-1-ylmethyl]-methyl-amine]	265 to 266	–
CNC[C@H]1CCCc2cc(S(=O)(=O)c3ccccc3)ccc21 (as salt: TFA) [Compound 40, (S)-(6-Benzenesulfonyl-1,2,3,4-tetrahydro-naphthalen-1-ylmethyl)-methyl-amine]	146 to 147	–
N#Cc1cccc(S(=O)(=O)c2ccc3c(c2)CCC[C@H]3CN)c1 (as salt: oxalate) [Compound 52, (R)-3-(5-Aminomethyl-5,6,7,8-tetrahydro-naphthalene-2-sulfonyl)-benzonitrile]	212 to 213	–
N=C(N)CCC1CCCc2cc(S(=O)(=O)c3ccccc3)ccc21 (stereo not drawn) [3-(6-Benzenesulfonyl-1,2,3,4-tetrahydro-naphthalen-1-yl)-propionamidine]	–	Ki [1]: ~0.141 nM
CC1(C)CN=C(NCC2CCCc3ccc(S(=O)(=O)c4ccccc4)cc32)NC1 (stereo not drawn) [Compound 11, (7-Benzenesulfonyl-1,2,3,4-tetrahydro-naphthalen-1-ylmethyl)-(5,5-dimethyl-1,4,5,6-tetrahydro-pyrimidin-2-yl)-amine]	140 to 145	–
CC(=N)NCC1CCCc2cc(S(=O)(=O)c3ccccc3)ccc21 (stereo not drawn) [N-(6-Benzenesulfonyl-1,2,3,4-tetrahydro-naphthalen-1-ylmethyl)-acetamidine]	–	Ki [2]: ~0.282 nM
